Experimental data: patent US11866408B2, “N,N-dimethyltryptamine and related psychedelics and uses thereof” (Terran Biosciences Inc., priority 2021, dated 2024)

What was measured:
[1] = Single intravenous dose pharmacokinetics study in rats (1 mg/kg IV; plasma levels of prodrug and of DMT or 5-MeO-DMT by LC-MS/MS); conditions: for AUC(0-t) / AUC(0-inf) / clearance / MRT / Vd / half-life: male, Sprague-Dawley, rat, iv, 1 mg/kg; for clearance: CL/CL_F (mL/min/kg); for MRT: MRT (h); for Vd: Vdss (L/kg); for half-life: t1/2 (h)
[2] = Single oral dose pharmacokinetics study in rats (10 mg/kg PO; plasma levels of prodrug and of metabolite DMT or 5-MeO-DMT by LC-MS/MS); conditions: for AUC(0-t) / Cmax: male, Sprague-Dawley, rat, po, 10 mg/kg
[3] = IV 1 mg/kg Plasma (t= 0 to Ihr)
[4] = IV 1 mg/kg, plasma, analyte = dosed compound
[5] = plasma, AUC0-t (nM.hr), IV 1 mg/kg, analyte = dosed compound
[6] = plasma, AUC0-t (ng.hr/mL), IV 1 mg/kg, analyte = dosed compound
[7] = plasma, AUCinf (nM.hr), IV 1 mg/kg, analyte = dosed compound
[8] = plasma, AUCinf (ng.hr/mL), IV 1 mg/kg, analyte = dosed compound
[9] = plasma, IV 1 mg/kg Plasma (t= 0 to Ihr)
[10] = plasma, IV 1 mg/kg, analyte = dosed compound
[11] = PO 10 mg/kg Plasma (t= 0 to Ihr)
[12] = PO 10 mg/kg, plasma, analyte = dosed compound
[13] = plasma, AUC0-t (nM.hr), PO 10 mg/kg, analyte = dosed compound
[14] = plasma, AUC0-t (ng.hr/mL), PO 10 mg/kg, analyte = dosed compound
[15] = plasma, C0/Cmax (nM), PO 10 mg/kg, analyte = dosed compound
[16] = plasma, C0/Cmax (ng/mL), PO 10 mg/kg, analyte = dosed compound, mean/median

| Compound | AUC % Back Extrapolation to C0 [1, 4] [%] | AUC % Extrapolation to infinity [1, 4] [%] | Clast [1, 4] [ng/mL] | tlast [1, 4] [h] | AUC(0-t) [1, 5] [µM·h] | AUC(0-t) [1, 6] [ng·h/mL] | AUC(0-inf) [1, 7] [µM·h] | AUC(0-inf) [1, 8] [ng·h/mL] | clearance [1, 10] [mL/min/kg] | MRT [1, 10] [min] | Vd [1, 10] [L/kg] | half-life [1, 10] [min] | AUC % Extrapolation to infinity [2, 12] [%] | CL/CL_F [2, 12] [mL/min/kg] | Clast [2, 12] [ng/mL] | tlast [2, 12] [h] | AUC(0-t) [2, 13] [µM·h] | AUC(0-t) [2, 14] [ng·h/mL] | Cmax [2, 15] [nM] | Cmax [2, 16] [ng/mL] | other results |
| --- | --- | --- | --- | --- | --- | --- | --- | --- | --- | --- | --- | --- | --- | --- | --- | --- | --- | --- | --- | --- | --- |
| CN(C)CCc1c[nH]c2ccccc12 [DMT, N,N-dimethyltryptamine] | 66.4 | 0.690 | 7.12 | 1.50 | 1.14 | 214 | 1.15 | 216 | 85.8 | 9.12 | 0.774 | 8.76 | 42.6 | 1639 | 1.52 | 24.0 | 0.314 | 59.1 | 69.4 | 13.1 | AUC % Back Extrapolation to C0 [1, 3]: 67.2%; AUC % Extrapolation to infinity [1, 3]: 0.502%; Clast [1, 3]: 5.51 ng/mL; tlast [1, 3]: 1.00 h; AUC(0-t) ([1]; plasma, AUC0-t (nM.hr), IV 1 mg/kg Plasma (t= 0 to Ihr)): 1.13 µM·h; AUC(0-t) ([1]; plasma, AUC0-t (ng.hr/mL), IV 1 mg/kg Plasma (t= 0 to Ihr)): 213 ng·h/mL; AUC(0-inf) ([1]; plasma, AUCinf (nM.hr), IV 1 mg/kg Plasma (t= 0 to Ihr)): 1.14 µM·h; AUC(0-inf) ([1]; plasma, AUCinf (ng.hr/mL), IV 1 mg/kg Plasma (t= 0 to Ihr)): 214 ng·h/mL; clearance [1, 9]: 87.1 mL/min/kg; MRT [1, 9]: 7.92 min; Vd [1, 9]: 0.645 L/kg; half-life [1, 9]: 8.4 min; Clast [2, 11]: 3.18 ng/mL; tlast [2, 11]: 1.02 h; Bioavailability (%) Using AUC0-t ([2]; PO 10 mg/kg Plasma (t= 0 to Ihr) vs IV 1 mg/kg): 0.212%; AUC(0-t) ([2]; plasma, AUC0-t (nM.hr), PO 10 mg/kg Plasma (t= 0 to Ihr)): 0.0239 µM·h; AUC(0-t) ([2]; plasma, AUC0-t (ng.hr/mL), PO 10 mg/kg Plasma (t= 0 to Ihr)): 4.51 ng·h/mL; Cmax ([2]; plasma, C0/Cmax (nM), PO 10 mg/kg Plasma (t= 0 to Ihr)): 47.1 nM; Cmax ([2]; plasma, C0/Cmax (ng/mL), PO 10 mg/kg Plasma (t= 0 to Ihr)): 8.87 ng/mL |
| COc1ccc2c(c1)c(CCN(C)C)cn2P(=O)(OC(C)C)OC(C)C [Diisopropylphosphonate 5-MeO-DMT Prodrug, 2-(1-diisopropoxyphosphoryl-5-methoxy-indol-3-yl)-N,N-dimethyl-ethanamine] | 7.68 | 7.01 | 5.32 | 4.00 | 0.273 | 104 | 0.295 | 113 | 150 | 83.4 | 12.2 | 60.6 | 7.77 | 450 | 2.84 | 24.1 | 0.921 | 352 | 210 | 80.4 | Bioavailability (%) Using AUCinf ([2]; PO 10 mg/kg vs IV 1 mg/kg, plasma, analyte = dosed compound): 33.8% |
| CC(C)OP(=O)(OC(C)C)n1cc(CCN(C)C)c2ccccc21 [Diisopropylphosphonate DMT Prodrug, 2-(1-diisopropoxyphosphorylindol-3-yl)-N,N-dimethyl-ethanamine] | 36.7 | 3.21 | 5.22 | 4.00 | 0.862 | 304 | 0.881 | 311 | 70.2 | 52.1 | 4.21 | 51.9 | – | – | 28.2 | 7.00 | 1.83 | 644 | 554 | 195 | Bioavailability (%) Using AUC0-t ([2]; PO 10 mg/kg Plasma [Tlast = 4 h] vs IV 1 mg/kg): 16.1%; tlast ([2]; PO 10 mg/kg Plasma [Tlast = 4 h], analyte = dosed prodrug): 4.00 h; AUC(0-t) ([2]; plasma, AUC0-t (nM.hr), PO 10 mg/kg Plasma [Tlast = 4 h], analyte = dosed prodrug): 1.39 µM·h; AUC(0-t) ([2]; plasma, AUC0-t (ng.hr/mL), PO 10 mg/kg Plasma [Tlast = 4 h], analyte = dosed prodrug): 489 ng·h/mL; Cmax ([2]; plasma, C0/Cmax (nM), PO 10 mg/kg Plasma [Tlast = 4 h], analyte = dosed prodrug): 554 nM; Cmax ([2]; plasma, C0/Cmax (ng/mL), PO 10 mg/kg Plasma [Tlast = 4 h], analyte = dosed prodrug): 195 ng/mL |
